Values joined by “and” are separate entries in the source; they are usually repeats but may differ in a detail not shown here. Identical values can stand only once.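 Compound exposure: 48 hours, 5 concentrations, 96-well plates. The concentration for 50% growth inhibition is given as GI50. TGI: concentration producing complete growth inhibition.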
What follows are molecules tested on A549 NSCLC (assay: NCI anticancer screen, dose series, 48 h).
In the case of `Cn1c2ccccc2c2c(-c3ccccc3)[n+]3ccncc3nc21`, the GI50 is reported as over 100 µM and the TGI is reported as over 100 µM. `C[C@@H]1OC(O)[C@@H](F)[C@H](O)[C@@H]1O` (stereo not given in full) was tested, and the GI50 was over 100 µM and the TGI was over 100 µM. With `COc1ccc(-c2cnnc3c(-c4cccc(C(F)(F)F)c4)cnn23)cc1` the GI50 was 4.19 µM and the TGI was over 100 µM. In the case of `NC(=O)c1ccc(I)c(N)c1`, the GI50 is reported as over 100 µM and the TGI is reported as over 100 µM. `C=CCCCCCCCCC(=O)[O][Sn]([CH2]CCC)([CH2]CCC)[CH2]CCC` gave a GI50 of 0.164 µM and a TGI of 0.322 µM. In the case of `CC/C(=C(/c1ccc(O)cc1)c1ccc(OCCNC)cc1)c1ccccc1`, the GI50 is reported as 1.89 µM and the TGI is reported as 3.95 µM. With `O=C(/C(Br)=C/c1ccccc1)c1ccccc1` the GI50 was 14.2 µM and the TGI was 28.5 µM. Work on `C=C1C(=O)O[C@H]2[C@H]1CC/C(Cn1cc(-c3ccc(OC)cc3)nn1)=C\CC[C@@]1(C)O[C@@H]21` yielded a GI50 of 10.9 µM and a TGI of 24.4 µM. In the case of `O=C1CCCCN1CCCCC#Cc1ccccc1C#Cc1ccc([N+](=O)[O-])cc1`, the GI50 is reported as 3.03 µM and the TGI is reported as 13 µM. In the case of `CCOc1cc2c(Cl)ncnc2c(OCC)c1OCC`, the GI50 is reported as 24.6 µM and the TGI is reported as over 79.8 µM. With `Oc1ccc2ccccc2c1N=Nc1nccs1` the GI50 was 6.18 µM and the TGI was over 53.4 µM. `CC(=O)OCCN1c2ccccc2Sc2cnccc21` was tested, and the TGI was over 10 µM. For `CC(C)(CC(=O)Nc1ccccc1)C(=O)O`, the TGI was over 100 µM. Molecule `COc1ccc(/C(COc2c(-c3ccccc3)oc3ccccc3c2=O)=N\O)cc1` has a GI50 of 23.2 µM and a TGI of over 50 µM. `Cn1c(=O)c2[nH]c(SCc3ccccn3)nc2n(C)c1=S` gave a TGI of over 100 µM. For `COc1cc2c(c(O)c1Br)C(=O)c1c(O)cc(C[C@H](C)O)cc1[C@H]2[C@H]1c2cc(C[C@H](C)O)cc(O)c2C(=O)c2c1cc(OC)c(Br)c2O`, the GI50 was 10.1 µM and 20.9 µM and the TGI was 32.9 µM and > 100 µM. Molecule `COc1ccc(-c2cc(=O)c3ccc(O)cc3o2)cc1OC` has a TGI of over 100 µM. With `CC[C@]1(O)C[C@@H]2CN(CCc3c([nH]c4ccccc34)[C@@](C(=O)OC)(c3cc4c(cc3OC)N(C)[C@H]3[C@@](O)(C(=O)OC)[C@H](OC(C)=O)[C@]5(CC)C=CCN6CC[C@]43[C@@H]65)C2)C1` the GI50 was under 0.01 µM and the TGI was over 100 µM. For `N#CSc1c[nH]c2cccc(/C=C/C(=O)/C=C(/C=C/c3cccc4[nH]cc(SC#N)c34)OB(F)F)c12`, the GI50 was 0.991 µM and the TGI was 10.2 µM. For `COc1cc([N+](=O)[O-])cc2c3c(n(C)c12)[C@@]1(C)CCC2c4ccc(OCc5ccccc5)cc4CCC2C1C3` (stereo not given in full), the GI50 was 72.2 µM and the TGI was over 100 µM. In the case of `C=CC(=O)N1CC2(CCN(c3nc(OC4CCN(CCCOC)CC4)nc4c(OCC(F)(F)F)c(-c5c(C)ccc6[nH]ncc56)c(C5CC5)cc34)CC2)C1`, the GI50 is reported as 3.45 µM and the TGI is reported as 17.6 µM. With `Nc1nc(Cl)c2ncn(Cc3ccc(C45CC6CC(CC(C6)C4)C5)c(O)c3)c2n1` the GI50 was 1.29 µM and the TGI was 3.17 µM. In the case of `N#Cc1ccc(O)c(C2=NCC(c3cccc(Oc4ccccc4)c3)O2)c1` (stereo not given), the GI50 is reported as 0.876 µM and the TGI is reported as 11.8 µM. With `CS(=O)(=O)c1ccc([C@H]2O[C@@H](CO)C[C@]2(O)c2ccc(S(C)(=O)=O)cc2)cc1` the GI50 was over 100 µM and the TGI was over 100 µM. Work on `C[C@]12CC[C@H]3[C@@H](CC=C4C[C@@H](O)CC[C@@]43C)[C@@H]1CC[C@@H]2N(CCO)CCO` yielded a TGI of over 100 µM. In the case of `CC(C)(C)OC(=O)N1CCc2c(sc3ncnc(N/N=C/c4cccc5ccccc45)c23)C1`, the GI50 is reported as 3.64 µM and the TGI is reported as over 100 µM. For `CCN(CC)c1ccc(/C=C/c2ccc3cc(C)ccc3[n+]2CC)cc1`, the GI50 was 0.119 µM and the TGI was 14.6 µM. With `Cc1ccc2c(c1)[n+]([O-])c(N)n[n+]2[O-]` the TGI was over 100 µM. `COC1/C=C\C=C(/C)C(=O)NC2=CC(=O)C(=O)C(=C2O)CC(C)CC(OC)C(O)C(C)/C=C(\C)C1OC(N)=O` (stereo not given) was tested, and the TGI was over 100 µM.

What follows are molecules tested on HL-60(TB) leukemia (assay: NCI anticancer screen, dose series, 48 h).
In the case of `CN1CCN(C(=O)OCc2nc3c(N4CCOCC4)nc(Cl)nc3n2C)CC1`, the GI50 is reported as 0.65 µM and the TGI is reported as 3.28 µM. `COC(=O)[C@]12CC[C@@H](C)[C@H](C)[C@@H]1C1=CC[C@@H]3[C@@]4(C)C/C(=N\O)[C@H](O)[C@@]5(C)COC(=C45)C[C@@]3(C)[C@]1(C)CC2` showed a GI50 of 3.64 µM and a TGI of 13.2 µM. `Cn1c2ccccc2c2c(-c3ccccc3)[n+]3ccncc3nc21` was tested, and the GI50 was over 100 µM and the TGI was over 100 µM. In the case of `C[C@@H]1OC(O)[C@@H](F)[C@H](O)[C@@H]1O` (stereo not given in full), the GI50 is reported as over 100 µM and the TGI is reported as over 100 µM. In the case of `COc1ccc(-c2cnnc3c(-c4cccc(C(F)(F)F)c4)cnn23)cc1`, the GI50 is reported as over 100 µM and the TGI is reported as over 100 µM. With `NC(=O)c1ccc(I)c(N)c1` the GI50 was over 100 µM and the TGI was over 100 µM. `C=CCCCCCCCCC(=O)[O][Sn]([CH2]CCC)([CH2]CCC)[CH2]CCC` gave a GI50 of 0.169 µM and a TGI of 0.464 µM. In the case of `CC/C(=C(/c1ccc(O)cc1)c1ccc(OCCNC)cc1)c1ccccc1`, the GI50 is reported as 2.03 µM and the TGI is reported as 4.55 µM. For `O=C(/C(Br)=C/c1ccccc1)c1ccccc1`, the GI50 was 2.22 µM and the TGI was 6.47 µM. `C=C1C(=O)O[C@H]2[C@H]1CC/C(Cn1cc(-c3ccc(OC)cc3)nn1)=C\CC[C@@]1(C)O[C@@H]21` showed a GI50 of 1.17 µM and a TGI of 3.86 µM. Molecule `O=C1CCCCN1CCCCC#Cc1ccccc1C#Cc1ccc([N+](=O)[O-])cc1` has a GI50 of 1.75 µM and a TGI of 6.64 µM. `CCOc1cc2c(Cl)ncnc2c(OCC)c1OCC` gave a GI50 of 2.35 µM and a TGI of 15.5 µM. In the case of `Oc1ccc2ccccc2c1N=Nc1nccs1`, the GI50 is reported as 0.267 µM and the TGI is reported as over 100 µM. `CC(=O)OCCN1c2ccccc2Sc2cnccc21` gave a TGI of over 10 µM. Work on `CC(C)(CC(=O)Nc1ccccc1)C(=O)O` yielded a TGI of over 100 µM. In the case of `COc1ccc(/C(COc2c(-c3ccccc3)oc3ccccc3c2=O)=N\O)cc1`, the GI50 is reported as 20 µM and the TGI is reported as over 50 µM. `Cn1c(=O)c2[nH]c(SCc3ccccn3)nc2n(C)c1=S` showed a TGI of over 100 µM. For `COc1cc2c(c(O)c1Br)C(=O)c1c(O)cc(C[C@H](C)O)cc1[C@H]2[C@H]1c2cc(C[C@H](C)O)cc(O)c2C(=O)c2c1cc(OC)c(Br)c2O`, the GI50 was 3.28 µM and 17.4 µM and the TGI was 28 µM and 48.5 µM. In the case of `COc1ccc(-c2cc(=O)c3ccc(O)cc3o2)cc1OC`, the TGI is reported as over 100 µM. With `CC[C@]1(O)C[C@@H]2CN(CCc3c([nH]c4ccccc34)[C@@](C(=O)OC)(c3cc4c(cc3OC)N(C)[C@H]3[C@@](O)(C(=O)OC)[C@H](OC(C)=O)[C@]5(CC)C=CCN6CC[C@]43[C@@H]65)C2)C1` the GI50 was under 0.01 µM and the TGI was under 0.01 µM. Molecule `N#CSc1c[nH]c2cccc(/C=C/C(=O)/C=C(/C=C/c3cccc4[nH]cc(SC#N)c34)OB(F)F)c12` has a GI50 of 0.293 µM and a TGI of 5.25 µM. Work on `C=CC(=O)N1CC2(CCN(c3nc(OC4CCN(CCCOC)CC4)nc4c(OCC(F)(F)F)c(-c5c(C)ccc6[nH]ncc56)c(C5CC5)cc34)CC2)C1` yielded a GI50 of 1.76 µM and a TGI of 4.57 µM. In the case of `Nc1nc(Cl)c2ncn(Cc3ccc(C45CC6CC(CC(C6)C4)C5)c(O)c3)c2n1`, the GI50 is reported as 1.22 µM and the TGI is reported as 11.7 µM. `CCC(C)c1c(Cl)nc(Cl)nc1Cl` (stereo not given) was tested, and the TGI was over 100 µM. For `N#Cc1ccc(O)c(C2=NCC(c3cccc(Oc4ccccc4)c3)O2)c1` (stereo not given), the GI50 was 0.852 µM and the TGI was 9.29 µM. With `CS(=O)(=O)c1ccc([C@H]2O[C@@H](CO)C[C@]2(O)c2ccc(S(C)(=O)=O)cc2)cc1` the GI50 was over 100 µM and the TGI was over 100 µM. Work on `CC(C)(C)OC(=O)N1CCc2c(sc3ncnc(N/N=C/c4cccc5ccccc45)c23)C1` yielded a GI50 of 2.81 µM and a TGI of 13.4 µM. With `CCN(CC)c1ccc(/C=C/c2ccc3cc(C)ccc3[n+]2CC)cc1` the GI50 was 0.0297 µM and the TGI was 0.429 µM. Molecule `Cc1ccc2c(c1)[n+]([O-])c(N)n[n+]2[O-]` has a TGI of over 100 µM. With `COC1/C=C\C=C(/C)C(=O)NC2=CC(=O)C(=O)C(=C2O)CC(C)CC(OC)C(O)C(C)/C=C(\C)C1OC(N)=O` (stereo not given) the TGI was over 35.5 µM.

The molecules below were run on BT-549 breast (assay: NCI anticancer screen, dose series, 48 h).
Work on `CN1CCN(C(=O)OCc2nc3c(N4CCOCC4)nc(Cl)nc3n2C)CC1` yielded a GI50 of 1.09 µM and a TGI of 2.44 µM. Molecule `COC(=O)[C@]12CC[C@@H](C)[C@H](C)[C@@H]1C1=CC[C@@H]3[C@@]4(C)C/C(=N\O)[C@H](O)[C@@]5(C)COC(=C45)C[C@@]3(C)[C@]1(C)CC2` has a GI50 of 15.7 µM and a TGI of 34.8 µM. For `Oc1c(CN2CCC(N3CCCCC3)CC2)cc(Cc2cc(CN3CCC(N4CCCCC4)CC3)c(O)c3ncccc23)c2cccnc12`, the GI50 was 1.48 µM and the TGI was 5.13 µM.
